The record followed here is PubChem BioAssay AID743425 (Vanderbilt Specialized Chemistry Center, 2014).

Calls of active or inactive are those of the source. No rule for the calls is given here.

What is called EC50 is the midpoint of the concentration-response curve.

Metabotropic glutamate receptor 8 (Homo sapiens), sequence (O00222 whole entry, looked up): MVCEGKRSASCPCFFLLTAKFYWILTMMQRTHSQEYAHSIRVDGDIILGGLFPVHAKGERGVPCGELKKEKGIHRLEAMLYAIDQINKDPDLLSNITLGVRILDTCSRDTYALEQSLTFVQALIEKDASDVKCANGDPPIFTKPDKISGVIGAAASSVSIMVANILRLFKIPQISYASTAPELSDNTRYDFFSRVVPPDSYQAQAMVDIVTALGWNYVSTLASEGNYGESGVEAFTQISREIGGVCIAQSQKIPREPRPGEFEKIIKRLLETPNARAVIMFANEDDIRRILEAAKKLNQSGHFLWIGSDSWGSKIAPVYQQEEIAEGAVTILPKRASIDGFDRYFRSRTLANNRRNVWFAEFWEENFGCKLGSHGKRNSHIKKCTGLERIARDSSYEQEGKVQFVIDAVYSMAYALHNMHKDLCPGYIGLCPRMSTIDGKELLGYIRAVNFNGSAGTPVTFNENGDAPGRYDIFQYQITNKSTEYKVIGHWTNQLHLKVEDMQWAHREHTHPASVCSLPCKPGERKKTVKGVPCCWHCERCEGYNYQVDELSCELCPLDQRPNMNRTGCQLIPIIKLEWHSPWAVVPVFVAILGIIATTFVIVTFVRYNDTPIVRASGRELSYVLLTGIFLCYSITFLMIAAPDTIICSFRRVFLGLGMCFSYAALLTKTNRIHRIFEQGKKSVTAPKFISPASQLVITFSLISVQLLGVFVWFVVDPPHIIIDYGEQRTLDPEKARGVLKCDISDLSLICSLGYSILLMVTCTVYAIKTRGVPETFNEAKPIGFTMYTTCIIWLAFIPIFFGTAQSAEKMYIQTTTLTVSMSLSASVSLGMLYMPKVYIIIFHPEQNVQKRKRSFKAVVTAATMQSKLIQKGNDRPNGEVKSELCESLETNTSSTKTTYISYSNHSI

One experiment addresses Metabotropic glutamate receptor 8 (Homo sapiens) (UniProt O00222). In words: potentiation of glutamate EC20 at mGlu8 – rat receptor, calcium, dose response (AID 743425). Conditions: rat mGlu8, Fluo-4 calcium.
For the compound `CC(=O)Nc1ccc(SCC(=O)c2cc(C)n(-c3cccc(F)c3)c2C)cc1`, the EC50 was 1.5 µM.

On to `COC(=O)c1ccc(-n2c(C)cc(C(=O)CSCc3cccc(C)c3)c2C)cc1`, for which the EC50 is 3.16 µM.

In the case of `COC(=O)c1ccc(-n2c(C)cc(C(=O)CSc3ccc(N(C)C(C)=O)cc3)c2C)cc1`, the concentration giving a half-maximal response (EC50) is 3.3 µM.

In the case of `CC(=O)Nc1ccc(OCC(=O)c2cc(C)n(-c3ccc(OC(F)F)cc3)c2C)cc1`, the half-maximal effective concentration (EC50) is 3.5 µM.

With `CCOc1ccc(-n2c(C)cc(C(=O)CSc3ccc(OC)cc3)c2C)cc1`, the EC50 was 3.16 µM.

Regarding `COC(=O)c1ccc(-n2c(C)cc(C(=O)COc3ccc(NC(C)=O)cc3)c2C)cc1`, the 50% effective concentration (EC50) is 3.4 µM.

For `CC(=O)Nc1ccc(SCC(=O)c2cc(C)n(CC3CCCO3)c2C)cc1` (stereo not drawn), the concentration giving a half-maximal response (EC50) is 3.44 µM.

With `COC(=O)c1ccc(-n2c(C)cc(C(=O)CSc3ccc(NC(C)=O)cc3)c2C)cc1`, the concentration for a half-maximal effect (EC50) was 0.93 µM.

As to `COC(=O)c1ccc(-n2c(C)cc(C(=O)CSCc3ccc(OC)cc3)c2C)cc1`, the EC50 was 1.6 µM.

As for `CCOc1ccc(-n2c(C)cc(C(=O)CSCc3cccc(C)c3)c2C)cc1`, the EC50 was 3.16 µM.

For the compound `CCn1c(C)cc(C(=O)CSc2ccc(NC(C)=O)cc2)c1C`, the 50% effective concentration (EC50) is 10 µM.

Regarding `CC(=O)Nc1ccc(SCC(=O)c2cc(C)n(CC3COc4ccccc4O3)c2C)cc1` (stereo not drawn), the EC50 was 1.14 µM.

Take `CC(=O)Nc1ccc(SCC(=O)c2cc(C)n(-c3ccccc3F)c2C)cc1`: the concentration giving a half-maximal response (EC50) was 3.16 µM.

Regarding `COc1ccc(SCC(=O)c2cc(C)n(-c3ccc(OC(F)F)cc3)c2C)cc1`, the concentration for a half-maximal effect (EC50) is 3.16 µM.

As to `CC(=O)Nc1ccc(SCC(=O)c2cc(C)n(CCc3cccs3)c2C)cc1`, the EC50 is 1.6 µM.

Turning to `CCOc1ccc(-n2c(C)cc(C(=O)CSCc3ccc(OC)cc3)c2C)cc1`, the concentration giving a half-maximal response (EC50) is 3.16 µM.

For `COc1ccc(CSCC(=O)c2cc(C)n(-c3ccc(OC(F)F)cc3)c2C)cc1`, the EC50 is 0.23 µM.

Turning to `Cc1ccc(CSCC(=O)c2cc(C)n(-c3ccc(OC(F)F)cc3)c2C)cc1`, the concentration giving a half-maximal response (EC50) was 3.16 µM.

Take `CC(=O)Nc1ccc(SCC(=O)c2cc(C)n(-c3nc(C)cs3)c2C)cc1`: the concentration for a half-maximal effect (EC50) was 10 µM.

In the case of `COC(=O)c1ccc(-n2c(C)cc(C(=O)COc3ccc(OC(C)=O)cc3)c2C)cc1`, the EC50 was 10 µM.

Regarding `CC(=O)Nc1ccc(SCC(=O)c2cc(C)n(-c3ccc(S(N)(=O)=O)cc3)c2C)cc1`, the EC50 is 3.16 µM.

A further experiment deals with Metabotropic glutamate receptor 8 (Rattus norvegicus) (UniProt P70579). Described as above. Conditions: rat mGlu8, Fluo-4 calcium, active compounds read high.
Metabotropic glutamate receptor 8 (Rattus norvegicus), sequence (P70579 whole entry, looked up): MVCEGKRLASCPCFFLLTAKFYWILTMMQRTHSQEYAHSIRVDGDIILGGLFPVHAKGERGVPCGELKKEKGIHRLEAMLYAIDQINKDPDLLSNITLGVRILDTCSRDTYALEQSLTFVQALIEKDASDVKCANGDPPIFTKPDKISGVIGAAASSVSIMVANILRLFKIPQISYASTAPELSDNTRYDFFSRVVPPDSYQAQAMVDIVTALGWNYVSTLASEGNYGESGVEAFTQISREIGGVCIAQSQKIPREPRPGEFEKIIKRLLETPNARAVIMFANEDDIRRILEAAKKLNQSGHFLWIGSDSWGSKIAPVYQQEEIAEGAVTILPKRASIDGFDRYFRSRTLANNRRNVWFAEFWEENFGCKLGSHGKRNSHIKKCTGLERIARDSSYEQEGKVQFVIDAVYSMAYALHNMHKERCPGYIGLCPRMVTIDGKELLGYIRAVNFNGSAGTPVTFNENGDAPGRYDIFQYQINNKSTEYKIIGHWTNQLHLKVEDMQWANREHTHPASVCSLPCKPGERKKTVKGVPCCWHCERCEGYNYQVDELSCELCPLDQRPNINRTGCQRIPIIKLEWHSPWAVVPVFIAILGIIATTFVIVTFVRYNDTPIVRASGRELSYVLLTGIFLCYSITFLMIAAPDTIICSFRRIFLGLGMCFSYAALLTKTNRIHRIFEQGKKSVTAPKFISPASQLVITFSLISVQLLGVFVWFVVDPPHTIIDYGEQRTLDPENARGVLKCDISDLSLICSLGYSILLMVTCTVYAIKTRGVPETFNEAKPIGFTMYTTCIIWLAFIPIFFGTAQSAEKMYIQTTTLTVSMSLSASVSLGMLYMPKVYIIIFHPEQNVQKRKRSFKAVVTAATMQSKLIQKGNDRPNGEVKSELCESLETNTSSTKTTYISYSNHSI
In the case of `COC(=O)c1ccc(-n2c(C)cc(C(=O)CNc3ccc(C(=O)O)cc3)c2C)cc1`, the “% glutamate max” value is “inactive”.

For the compound `COC(=O)c1ccc(-n2c(C)cc(C(=O)COc3cccc(N(C)C)c3)c2C)cc1`, the “% glutamate max” value was “inactive”.
